IC50 data for 22 compounds are collected here from patent US8143422B2, “Benzimidazole derivatives” (Hoffmann-La Roche Inc., priority 2008, dated 2012).

This assay has as its target T1, FXR ligand binding domain (GST-FXR LBD fusion protein) (Homo sapiens, UniProt Q96RI1).
T1 construct: made in house; host or cells: E. coli BL21(pLysS)
T1 sequence (Q96RI1 193-472 isoform Q96RI1-2 limits assumed): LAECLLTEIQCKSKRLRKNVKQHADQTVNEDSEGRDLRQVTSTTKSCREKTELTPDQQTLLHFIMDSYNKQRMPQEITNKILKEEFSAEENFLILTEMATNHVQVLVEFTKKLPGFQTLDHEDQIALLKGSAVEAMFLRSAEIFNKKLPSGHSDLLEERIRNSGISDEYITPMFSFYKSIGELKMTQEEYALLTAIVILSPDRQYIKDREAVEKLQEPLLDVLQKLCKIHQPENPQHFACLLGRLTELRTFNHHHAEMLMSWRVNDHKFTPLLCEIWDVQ
As to the kind of experiment: Radioligand binding assay (scintillation proximity, radioligand displacement). The following applies: GST-FXR LBD on SPA beads, 20 nM radioligand, test compound 6×10^−9 M to 2.5×10^−5 M. As for the experimental part: The following tests were carried out in order to determine the activity of the compounds of formula (I). Background information on the binding assay can be found in: Nichols J S et al. “Development of a scintillation proximity assay for peroxisome proliferator-activated receptor gamma ligand binding domain”, (1998) Anal. Biochem. 257: 112-119.
Bacterial and mammalian expression vectors were constructed to produce glutathione-s-transferase (GST) and Gal4 DNA binding domain (GAL) proteins fused to the ligand binding domain (LBD) of human FXR (aa 193-473). To accomplish this, the portions of the sequences encoding the FXR LBD were amplified by polymerase chain reaction (PCR) from a full-length clone by PCR and then subcloned into the plasmid vectors. The final clone was verified by DNA sequence analysis.
The induction, expression, and subsequent purification of GST-LBD fusion protein was performed in E. coli strain BL21(pLysS) cells by standard methods (Current Protocols in Molecular Biology, Wiley Press, ed. Ausubel et al.).
Radioligand Binding Assay
Binding of test substances to the FXR ligand binding domain was assessed in a radioligand displacement assay. The assay was performed in a buffer consisting of 50 mM Hepes, pH 7.4, 10 mM NaCl, 5 mM MgCl2, 0.01% CHAPS. For each reaction well in a 96-well plate, 40 nM of GST-FXR LBD fusion protein was bound to 10 μg glutathione ytrium silicate SPA beads (PharmaciaAmersham) in a final volume of 50 μl by shaking. A radioligand (e.g., 20 nM of 2,N-dicyclohexyl-2-[2-(2,4 dimethoxy-phenyl)-benzoimidazol-1-yl]-acetamide) and test compounds were added, and scintillation proximity counting was performed. All binding assays were performed in 96-well plates and the amount of bound ligand was measured on a Packard TopCount using OptiPlates (Packard). Dose response curves were performed within a range of test compound concentrations from 6×10^−9 M to 2.5×10^−5 M and IC50 values were calculated.
Background: SPA uses beads or plates that emit light when radiolabelled molecules are held near them.
“6-{(S)-2-Cyclohexyl-2-[5,6-difluoro-2-((S)-methoxy-phenyl-methyl)-benzoimidazol-1-yl]-acetylamino}-nicotinic acid [Example 10B]” displayed an IC50 of 100 nM.

`CO[C@@H](c1ccccc1)c1nc2cc(F)c(F)cc2n1[C@H](C(=O)Nc1ccc(C(=O)O)cn1)C1CCCCC1` (single isomer, unassigned) [Example 9B] had an IC50 of 2600 nM.

In turn, `CO[C@H](c1ccccc1)c1nc2cc(F)c(F)cc2n1[C@H](C(=O)Nc1ccc(C(=O)O)cc1Cl)C1CCCCC1` (single isomer, unassigned) [Example 8B] registered an IC50 of 60 nM.

In the case of `CO[C@H](c1ccccc1)c1nc2cc(F)ccc2n1C(C(=O)N[C@H]1CC[C@H](CC(=O)O)CC1)C1CCCCC1` (stereo partly drawn) [Example 11, (trans-4-{2-Cyclohexyl-2-[5-fluoro-2-((R)-methoxy-phenyl-methyl)-benzoimidazol-1-yl]-acetylamino}-cyclohexyl)-acetic acid], the IC50 amounted to 21000 nM.

In the case of `CO[C@H](c1ccccc1)c1nc2cc(F)c(F)cc2n1[C@@H](C(=O)Nc1ccc(C(=O)O)cc1Cl)C1CCCCC1` (single isomer, unassigned) [Example 8A], the IC50 is 400 nM.

On to `CO[C@H](c1ccccc1)c1nc2cc(F)c(F)cc2n1[C@@H](C(=O)Nc1ccc(C(=O)O)cc1C)C1CCCCC1` (single isomer, unassigned) [Example 6A], for which the IC50 turned out to be 5000 nM.

`CO[C@@H](c1ccccc1)c1nc2cc(F)c(F)cc2n1[C@@H](C(=O)Nc1ccc(C(=O)O)cc1F)C1CCCCC1` (single isomer, unassigned) [Example 3A] displayed an IC50 of 500 nM.

In the case of `CO[C@@H](c1ccccc1)c1nc2cc(F)c(F)cc2n1[C@@H](C(=O)Nc1ccc(C(=O)O)cc1C)C1CCCCC1` (single isomer, unassigned) [Example 5A], the IC50 is 300 nM.

The compound `CO[C@@H](c1ccccc1)c1nc2cc(F)c(F)cc2n1[C@H](C(=O)Nc1ccc(C(=O)O)cc1Cl)C1CCCCC1` (single isomer, unassigned) [Example 7B] gave an IC50 of 20 nM.

With `CO[C@H](c1ccccc1)c1nc2cc(F)c(F)cc2n1[C@H](C(=O)Nc1ccc(C(=O)O)cc1C)C1CCCCC1` (single isomer, unassigned) [Example 6B], the IC50 stood at 60 nM.

Compound `CO[C@@H](c1ccccc1)c1nc2cc(F)c(F)cc2n1[C@@H](C(=O)Nc1ccc(C(=O)O)cc1Cl)C1CCCCC1` (single isomer, unassigned) [Example 7A] returned an IC50 of 300 nM.

On to `CO[C@H](c1ccccc1)c1nc2cc(F)c(F)cc2n1[C@H](C(=O)Nc1ccc(C(=O)O)cc1F)C1CCCCC1` (single isomer, unassigned) [Example 4B], for which the IC50 was found to be 30 nM.

Compound `CO[C@H](c1ccccc1)c1nc2cc(F)ccc2n1C(C(=O)N[C@H]1CC[C@H](C(=O)O)CC1)C1CCCCC1` (stereo partly drawn) [Example 12, trans-4-{2-Cyclohexyl-2-[5-fluoro-2-((R)-methoxy-phenyl-methyl)-benzoimidazol-1-yl]-acetylamino}-cyclohexanecarboxylic acid] yielded an IC50 of 6800 nM.

`CO[C@H](c1ccccc1)c1nc2cc(F)c(F)cc2n1[C@H](C(=O)Nc1ccc(C(=O)O)cc1)C1CCCCC1` (single isomer, unassigned) [Example 2B] had an IC50 of 300 nM.

`CO[C@@H](c1ccccc1)c1nc2cc(F)c(F)cc2n1[C@H](C(=O)Nc1ccc(C(=O)O)cc1C)C1CCCCC1` (single isomer, unassigned) [Example 5B] yielded an IC50 of 1100 nM.

Compound `CO[C@@H](c1ccccc1)c1nc2cc(F)c(F)cc2n1[C@H](C(=O)Nc1ccc(C(=O)O)cc1F)C1CCCCC1` (single isomer, unassigned) [Example 3B] had an IC50 of 400 nM.

Compound `CO[C@@H](c1ccccc1)c1nc2cc(F)c(F)cc2n1[C@H](C(=O)Nc1ccc(C(=O)O)cc1)C1CCCCC1` (single isomer, unassigned) [Example 1B] yielded a half-maximal inhibitory concentration (IC50) of 1000 nM.

The compound `CO[C@@H](c1ccccc1)c1nc2cc(F)c(F)cc2n1[C@@H](C(=O)Nc1ccc(C(=O)O)cn1)C1CCCCC1` (single isomer, unassigned) [Example 9A] had an IC50 of 1700 nM.

For the compound `CO[C@H](c1ccccc1)c1nc2cc(F)c(F)cc2n1[C@@H](C(=O)Nc1ccc(C(=O)O)cc1F)C1CCCCC1` (single isomer, unassigned) [Example 4A], the IC50 turned out to be 500 nM.

Compound `CO[C@H](c1ccccc1)c1nc2cc(F)c(F)cc2n1[C@@H](C(=O)Nc1ccc(C(=O)O)cc1)C1CCCCC1` (single isomer, unassigned) [Example 2A] showed an IC50 of 1600 nM.

The compound `CO[C@@H](c1ccccc1)c1nc2cc(F)c(F)cc2n1[C@@H](C(=O)Nc1ccc(C(=O)O)cc1)C1CCCCC1` (single isomer, unassigned) [Example 1A] came in with an IC50 of 1900 nM.

The compound “6-{(R)-2-Cyclohexyl-2-[5,6-difluoro-2-((S)-methoxy-phenyl-methyl)-benzoimidazol-1-yl]-acetylamino}-nicotinic acid [Example 10A]” showed an IC50 of 200 nM.

As a reminder, the IC50 is the concentration that gives 50% inhibition. A high value points to lower potency.
